Our source for the IC50 values is patent US10689378B2, “Triazolopyridine compounds and uses thereof” (Novartis AG, priority 2016, dated 2020).

Like-named read-outs stand apart in the source and are kept apart here.

The subject of experiment [1] is H3K27 methylation in G401 cell. Kind of experiment: ELISA (H3K27 methylation) assay in G401 cells. The experiment is classed as cell-based, human. An outline of the steps:
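IC50 from dose-response fit of percent inhibition relative to DMSO, using H3K27me3/me2 ELISA signal (ECL) normalized to histone H3. Histones HCl-extracted after 48 h compound exposure of G401 cells at up to 20 μM, 8- or 12-point 3-fold series.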
(An ELISA detects its analyte on a solid surface through an enzyme-linked reagent.)

Experiment [2] deals with wild type PRC2 (wtPRC2) complex (Homo sapiens, UniProt O75530). Kind of experiment: EED LC-MS assay (SAH production by PRC2). The experiment is classed as biochemical. The conditions noted are these: read-out: (b) IC50, EED LC-MS Qualified. The protocol:
Compounds of the present invention were assessed for their ability to inhibit PRC2 activity in a pentameric complex of EZH2, SUZ12, EED, Rbap48 and AEBP in biochemical assays. The ability of compounds of the present invention to inhibit cellular activity of PRC2 was assessed by analysing histone H3 lysine 27 methylation in human cell lines. The ability of compounds of the present invention to inhibit cancers was derived from their ability to modulate activity in human cancer cell lines bearing specific dependence to PRC2 activity to maintain cancerous growth.
Representative compounds of the present invention were serially and separately diluted 3-fold in DMSO to obtain a total of eight or twelve concentrations. Then the test compounds at each concentration (120 nL of each) were transferred by Mosquito into a 384-well Perkin Elmer ProxiPlate 384 plus plates. Solutions (6 μL) of 24 nM the wild type PRC2 (wtPRC2) complex and 2 μM SAM in reaction buffer (20 mM Tris, pH 8.0, 0.1% BSA, 0.01% Triton, 0.5 mM DTT) were added to the wells that were then incubated with the test compound for 20 min. A 6 μL solution of 3 μM of the peptide substrate H3K27Me0 (histone H3[21-44]-biotin) in reaction buffer was added to initiate each reaction. The final components in the reaction solution include 12 nM wtPRC2 complex, 1 μM SAM, and 1.5 μM H3K27me0 peptide with varying concentration of the compounds. A positive control consisted of the enzyme, 1 μM SAM and 1.5 μM substrate in the absence of the test compound, and a negative control consisted of 1 μM SAM and 1.5 μM substrate only. Each reaction was incubated at rt for 120 min, then stopped by addition of 3 μL per of quench solution (2.5% TFA with 320 nM d4-SAH). The reaction mixture was centrifuged (Eppendorf centrifuge 5810, Rotor A-4-62) for 2 min at 2000 rpm and read on an API 4000 triple quadrupole mass spec with Turbulon Spray (Applied Biosystem) coupled with Prominence UFLC (Shimadzu). The levels of SAH production were then normalized based on the values coming from the positive and negative controls to give percent enzyme activities. The data were then fit to a dose response equation using the program Helios to get the IC50 values of the test compound.

A further experiment addresses T1, EED (1-441)-His protein (Homo sapiens, UniProt O75530).
T1 construct: 30 nM EED (1-441)-His protein
The experiment in a line: EED-H3K27Me3 peptide competition binding assay by AlphaScreen. To be noted: read-out: (a) IC50, EED Alphascreen binding Qualified. In a few lines:
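Serially diluted compound (12 points, 3-fold) incubated 20 min with 30 nM EED(1-441)-His and 15 nM biotin-H3K27Me3(19-33) peptide in 25 mM HEPES pH 8, 0.02% Tween-20, 0.5% BSA. Ni-chelate acceptor/streptavidin donor beads (10 μg/mL each) added, 1 h rt dark; 615 nm emission normalized to controls, dose-response fit for IC50.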

Setting [3] is: Homo sapiens, G-401, read-out: (c) IC50, ELISA Qualified.

wild type PRC2 (wtPRC2) complex, sequence (O75530 whole entry): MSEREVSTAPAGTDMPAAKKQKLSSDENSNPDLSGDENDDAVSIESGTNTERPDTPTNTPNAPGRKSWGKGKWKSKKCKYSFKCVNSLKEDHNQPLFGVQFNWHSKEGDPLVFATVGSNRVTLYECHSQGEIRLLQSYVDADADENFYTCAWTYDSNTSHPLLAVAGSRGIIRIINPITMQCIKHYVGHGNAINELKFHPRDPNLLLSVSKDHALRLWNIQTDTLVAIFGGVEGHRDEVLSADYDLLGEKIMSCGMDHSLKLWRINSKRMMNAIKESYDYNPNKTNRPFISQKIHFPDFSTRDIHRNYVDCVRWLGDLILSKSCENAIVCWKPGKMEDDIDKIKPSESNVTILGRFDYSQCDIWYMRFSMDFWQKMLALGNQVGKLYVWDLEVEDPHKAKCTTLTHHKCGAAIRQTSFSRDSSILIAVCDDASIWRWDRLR
wild type PRC2 (wtPRC2) complex, sequence (Q15910 whole entry partner): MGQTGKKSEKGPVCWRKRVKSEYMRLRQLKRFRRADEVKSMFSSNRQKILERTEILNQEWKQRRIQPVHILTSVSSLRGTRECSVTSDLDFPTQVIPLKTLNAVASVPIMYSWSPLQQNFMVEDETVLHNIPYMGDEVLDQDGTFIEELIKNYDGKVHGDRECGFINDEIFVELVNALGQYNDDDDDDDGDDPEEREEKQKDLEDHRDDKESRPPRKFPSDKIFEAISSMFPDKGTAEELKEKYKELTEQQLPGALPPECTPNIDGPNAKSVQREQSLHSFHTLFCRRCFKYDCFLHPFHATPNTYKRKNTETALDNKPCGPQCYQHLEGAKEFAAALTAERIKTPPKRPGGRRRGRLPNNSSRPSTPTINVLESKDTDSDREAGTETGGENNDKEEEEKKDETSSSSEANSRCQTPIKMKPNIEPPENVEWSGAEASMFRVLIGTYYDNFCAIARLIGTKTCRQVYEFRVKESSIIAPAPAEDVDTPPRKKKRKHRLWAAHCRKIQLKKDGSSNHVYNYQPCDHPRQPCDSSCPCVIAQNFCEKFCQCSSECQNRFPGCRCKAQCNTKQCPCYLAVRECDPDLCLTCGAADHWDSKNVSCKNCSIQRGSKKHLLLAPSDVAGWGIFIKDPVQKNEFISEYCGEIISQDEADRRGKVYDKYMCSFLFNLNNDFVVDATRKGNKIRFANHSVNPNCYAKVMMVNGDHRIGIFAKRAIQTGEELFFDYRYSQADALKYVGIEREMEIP
wild type PRC2 (wtPRC2) complex, sequence (Q15022 whole entry partner): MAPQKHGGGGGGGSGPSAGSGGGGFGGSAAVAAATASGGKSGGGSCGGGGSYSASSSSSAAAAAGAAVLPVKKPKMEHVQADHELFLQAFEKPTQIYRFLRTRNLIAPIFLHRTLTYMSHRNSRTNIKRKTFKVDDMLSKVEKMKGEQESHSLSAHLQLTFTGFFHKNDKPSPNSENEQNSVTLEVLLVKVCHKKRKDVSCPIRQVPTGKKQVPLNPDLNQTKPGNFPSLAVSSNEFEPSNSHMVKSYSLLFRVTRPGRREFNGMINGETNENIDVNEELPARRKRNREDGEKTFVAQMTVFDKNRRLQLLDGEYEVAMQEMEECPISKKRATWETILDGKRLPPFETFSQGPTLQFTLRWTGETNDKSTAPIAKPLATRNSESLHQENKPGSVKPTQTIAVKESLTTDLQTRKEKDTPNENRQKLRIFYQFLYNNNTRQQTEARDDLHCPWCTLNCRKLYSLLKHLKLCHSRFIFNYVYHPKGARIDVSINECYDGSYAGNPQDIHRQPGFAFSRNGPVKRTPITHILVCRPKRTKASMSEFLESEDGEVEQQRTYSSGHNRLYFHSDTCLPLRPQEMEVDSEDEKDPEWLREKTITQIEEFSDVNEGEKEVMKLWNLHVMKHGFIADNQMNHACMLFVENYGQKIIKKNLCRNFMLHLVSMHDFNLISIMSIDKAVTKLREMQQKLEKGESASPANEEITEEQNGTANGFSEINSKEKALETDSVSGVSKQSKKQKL
wild type PRC2 (wtPRC2) complex, sequence (Q09028 whole entry partner): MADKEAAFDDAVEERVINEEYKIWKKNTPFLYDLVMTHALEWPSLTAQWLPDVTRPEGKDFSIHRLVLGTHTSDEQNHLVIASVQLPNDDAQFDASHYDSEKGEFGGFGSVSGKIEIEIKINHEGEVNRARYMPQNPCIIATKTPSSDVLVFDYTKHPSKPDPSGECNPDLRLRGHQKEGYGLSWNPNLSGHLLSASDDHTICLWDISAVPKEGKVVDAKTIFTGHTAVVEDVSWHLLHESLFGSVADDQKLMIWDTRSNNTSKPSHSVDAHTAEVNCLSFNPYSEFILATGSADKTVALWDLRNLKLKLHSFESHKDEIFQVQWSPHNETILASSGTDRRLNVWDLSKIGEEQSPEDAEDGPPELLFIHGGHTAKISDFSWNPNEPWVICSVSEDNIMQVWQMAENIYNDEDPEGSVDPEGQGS
wild type PRC2 (wtPRC2) complex, sequence (Q6ZN18 whole entry partner): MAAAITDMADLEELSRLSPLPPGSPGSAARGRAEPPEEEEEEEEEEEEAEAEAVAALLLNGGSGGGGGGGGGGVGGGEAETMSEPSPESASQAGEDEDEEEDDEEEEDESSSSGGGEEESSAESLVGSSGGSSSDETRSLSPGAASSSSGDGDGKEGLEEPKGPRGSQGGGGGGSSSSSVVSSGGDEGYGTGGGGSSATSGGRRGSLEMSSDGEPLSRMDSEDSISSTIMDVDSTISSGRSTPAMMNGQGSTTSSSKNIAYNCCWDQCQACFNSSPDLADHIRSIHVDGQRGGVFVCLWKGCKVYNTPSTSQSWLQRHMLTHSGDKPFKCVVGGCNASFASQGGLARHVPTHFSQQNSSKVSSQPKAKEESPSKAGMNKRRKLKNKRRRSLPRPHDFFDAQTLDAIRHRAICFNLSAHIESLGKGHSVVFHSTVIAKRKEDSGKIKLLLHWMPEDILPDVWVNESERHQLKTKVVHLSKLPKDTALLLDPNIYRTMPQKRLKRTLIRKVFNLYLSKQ
T1 sequence (O75530 whole entry): as the sequence (O75530 whole entry) above

As a reminder, the IC50 is the concentration at which inhibition is half-maximal. With `COc1cccc(F)c1CNc1ccc(-c2ccccn2)c2nncn12` [Example 5, N-(2-Fluoro-6-methoxybenzyl)-8-(pyridin-2-yl)-[1,2,4]triazolo[4,3-a]pyridin-5-amine], the IC50 in experiment [1] (setting [3]) came to 42.6 nM; in experiment [2] it was 137 nM; on EED (1-441)-His protein, 48.2 nM.
The corresponding values for `COc1cccc(F)c1CNc1ccc(-c2ncccc2C)c2nncn12` [Example 6, N-(2-Fluoro-6-methoxybenzyl)-8-(3-methylpyridin-2-yl)-[1,2,4]triazolo[4,3-a]pyridin-5-amine] are 57 nM, 149 nM and 90.9 nM.
On the same counts, the results for `COc1cccc(F)c1CNc1ccc(-n2cc(C)nc2C)c2nncn12` [Example 7, 8-(2,4-Dimethyl-1H-imidazol-1-yl)-N-(2-fluoro-6-methoxybenzyl)-[1,2,4]triazolo[4,3-a]pyridin-5-amine] are 10.1 nM, 11.4 nM and 18.7 nM.
On the same counts, the results for `COc1cccc(F)c1CNc1ccc(-c2cncn2C)c2nncn12` [Example 8] are 4.3 nM, 35.2 nM and 10.6 nM.
Consider `COc1cccc(F)c1CNc1ccc(-c2nnc(C)o2)c2nncn12` [Example 9, N-(2-Fluoro-6-methoxybenzyl)-8-(5-methyl-1,3,4-oxadiazol-2-yl)-[1,2,4]triazolo[4,3-a]pyridin-5-amine], for which the 50% inhibitory concentration (IC50) came to 2.4 nM in experiment [1] (setting [3]), 62.4 nM in experiment [2] and 33.9 nM at EED (1-441)-His protein.
Take `CCc1nc(-c2ccc(NCc3c(F)cccc3OC)n3cnnc23)no1` [Example 10, 8-(5-Ethyl-1,2,4-oxadiazol-3-yl)-N-(2-fluoro-6-methoxybenzy)-[1,2,4]triazolo[4,3-a]pyridin-5-amine]: the IC50 is 9.3 nM in experiment [1] (read-out: (c) IC50, ELISA Qualified); 198 nM in experiment [2]; 61.1 nM at EED (1-441)-His protein.
Regarding `COc1cccc(F)c1CNc1ccc(-c2nc(C)no2)c2nncn12` [Example 11, N-(2-Fluoro-6-methoxybenzyl)-8-(3-methyl-1,2,4-oxadiazol-5-yl)-[1,2,4]triazolo[4,3-a]pyridin-5-amine], the IC50 in experiment [1] (setting [3]) stood at 40.5 nM; in experiment [2], 119 nM; on EED (1-441)-His protein it was 30.7 nM.
Take `COc1ccccc1CNc1ccc(-c2ccc(CN(C)C)cc2)c2nncn12` [Example 15, 8-(4-((dimethylamino)methyl)phenyl)-N-(2-methoxybenzyl)-[1,2,4] triazolo[4,3-a]pyridin-5-amine]: the 50% inhibitory concentration (IC50) in experiment [1] (setting [3]) was 17.5 nM; in experiment [2] it was 66.3 nM; on EED (1-441)-His protein it was 14.9 nM.
The corresponding values for `COc1ccc(-c2ccc(NCc3ccccc3OC)n3cnnc23)cn1` [Example 16, N-(2-methoxybenzyl)-8-(6-methoxypyridin-3-yl)-[1,2,4] triazolo[4,3-a]pyridin-5-amine] are 158 nM, 377 nM and 56.2 nM.
On to `COc1ccccc1CNc1ccc(-c2ccc(S(=O)(=O)N3CCN(C)CC3)cc2)c2nncn12` [Example 18, N-(2-methoxybenzyl)-8-(4-((4-methylpiperazin-1-yl)sulfonyl)phenyl)-[1,2,4] triazolo[4,3-a]pyridin-5-amine], for which the IC50 in experiment [1] (setting [3]) stood at 114 nM; in experiment [2] it was 930 nM; at EED (1-441)-His protein, 81.7 nM.
Regarding `CN(C)Cc1ccc(-c2ccc(NCc3ccccc3OC(F)F)n3cnnc23)cc1` [Example 19, N-(2-(difluoromethoxy)benzyl)-8-(4-((dimethylamino)methyl)phenyl)-[1,2,4]triazolo[4,3-a] pyridin-5-amine], the IC50 was 363 nM in experiment [1] (setting [3]), 587 nM in experiment [2] and 169 nM on EED (1-441)-His protein.
The corresponding values for `COc1ccccc1CNc1ccc(-c2cnc(N3CCN(C)CC3)c(C)c2)c2nncn12` [Example 20, N-(2-methoxybenzyl)-8-(5-methyl-6-(4-methylpiperazin-1-yl)pyridin-3-yl)-[1,2,4]triazolo[4,3-a]pyridin-5-amine] are 185 nM, 248 nM and 79 nM.
On the same counts, the results for `COc1ccccc1CNc1ccc(-c2ccc(N3CCN(C)CC3)nc2)c2nncn12` [Example 21, N-(2-methoxybenzyl)-8-(6-(4-methylpiperazin-1-yl)pyridin-3-yl)-[1,2,4] triazolo[4,3-a]pyridin-5-amine] are 234 nM, 1060 nM and 124 nM.
The corresponding values for `COc1ccccc1CNc1ccc(-c2ccc(N3CCN(C)CC3)cc2)c2nncn12` [Example 22, N-(2-methoxybenzyl)-8-(4-(4-methylpiperazin-1-yl)phenyl)-[1,2,4]triazolo[4,3-a] pyridin-5-amine] are 42.3 nM, 365 nM and 56.2 nM.
With `COc1ccccc1CNc1ccc(-c2ccncc2)c2nncn12` [Example 24, N-(2-methoxybenzyl)-8-(pyridin-4-yl)-[1,2,4] triazolo[4,3-a]pyridin-5-amine], the results for the IC50 (in experiment [1] (setting [3]); in experiment [2]; on EED (1-441)-His protein) were 47.8 nM, 92.1 nM and 46.4 nM, respectively.
The corresponding values for `COc1ccccc1CNc1ccc(-c2ccc(S(C)(=O)=O)cc2)c2nncn12` [Example 25, N-(2-methoxybenzyl)-8-(4-(methylsulfonyl)phenyl)-[1,2,4]triazolo[4,3-a]pyridin-5-amine] are 50.3 nM, 151 nM and 33.6 nM.
For the compound `COc1ccccc1CNc1ccc(-c2ccnnc2)c2nncn12` [Example 26, N-(2-methoxybenzyl)-8-(pyridazin-4-yl)-[1,2,4] triazolo[4,3-a]pyridin-5-amine], the results for the half-maximal inhibitory concentration (IC50) (in experiment [1] (setting [3]); in experiment [2]; at EED (1-441)-His protein) were 47.7 nM, 498 nM and 73.4 nM, respectively.
The corresponding values for `COc1ccccc1CNc1ccc(-c2cccnc2)c2nncn12` [Example 27, N-(2-methoxybenzyl)-8-(pyridin-3-yl)-[1,2,4] triazolo[4,3-a]pyridin-5-amine] are 51.5 nM, 266 nM and 44.4 nM.
On the same counts, the results for `COc1ccccc1CNc1ccc(-c2cccc(CN(C)C)c2)c2nncn12` [Example 28, 8-(3-((dimethylamino)methyl)phenyl)-N-(2-methoxybenzyl)-[1,2,4] triazolo[4,3-a]pyridin-5-amine] are 54 nM, 291 nM and 37.9 nM.
Take `COc1ccccc1CNc1ccc(-c2ccc(CN3CCC3)cc2)c2nncn12` [Example 29, 8-(4-(azetidin-1-ylmethyl)phenyl)-N-(2-methoxybenzyl)-[1,2,4]triazolo[4,3-a] pyridin-5-amine]: the IC50 in experiment [1] (setting [3]) worked out at 23.1 nM; in experiment [2] it was 87.7 nM; on EED (1-441)-His protein it was 13 nM.
Turning to `COc1ccccc1CNc1ccc(-c2ccc(CN3CCOCC3)cc2)c2nncn12` [Example 30, N-(2-methoxybenzyl)-8-(4-(morpholinomethyl)phenyl)-[1,2,4]triazolo[4,3-a]pyridin-5-amine], the concentration for half-maximal inhibition (IC50) in experiment [1] (setting [3]) came to 113 nM; in experiment [2], 483 nM; on EED (1-441)-His protein, 38.2 nM.
Take `COc1ccccc1CNc1ccc(-c2ccc(C(C)N3CCCC3)cc2)c2nncn12` (stereo not drawn) [Example 32, N-(2-methoxybenzyl)-8-(4-(1-(pyrrolidin-1-yl)ethyl)phenyl)-[1,2,4] triazolo[4,3-a]pyridin-5-amine]: the 50% inhibitory concentration (IC50) is 38 nM in experiment [1] (setting [3]), 142 nM in experiment [2] and 17.4 nM at EED (1-441)-His protein.
